According to patent US9572315B2, “ALS inhibitor herbicide tolerant B. napus mutants” (BAYER INTELLECTUAL PROPERTY GMBH, priority 2011, dated 2017):

Assays:
[1] = tested on: plants regenerated from the clone FM202; assay: Growth of regenerated plants in presence of herbicide; format: cell-based, Brassica napus; conditions: high concentration of ALS inhibitor (selection at 10^−4 M)
[2] = tested on: B. napus mutant FM 202 (ALS I A190V, ALS III W556L); assay: ALS-inhibitor herbicide injury on B. napus, greenhouse spray trial, visual scoring; format: in vivo, Brassica napus
Experimental: (§1) The individual components herbicide and surfactant with regard to type and application rate as stated in table I were added with stirring to a water application rate of 300 l/ha so that a homogeneous spray mixture was formed.
(§2) Seeds of B. napus were sown in a sandy loam soil and placed in a climate chamber in a greenhouse under good growth conditions (16 h light, temperature day 14° C., night: 8° C.). The plants were grown up to growth stage of BBCH 12 to BBCH 13. […] After the treatment, the plants were returned to the climate chamber.
(§3) Visual scoring was carried out using a percentage scale of 0%=no damage to 100%=all plants dead.

[3] = tested on: B. napus wild type line SR002201 (NCIMB 41813); assay: as above; format: in vivo, Brassica napus
Experimental: as §1, §2, §3

[4] = tested on: B. napus plants of the present invention; assay: Sensitivity to ALS inhibitor herbicide compared to wild type; design: species or system Brassica napus; conditions: B. napus plant described in the Examples vs wild type
[5] = 20 g a.i./ha, spray at BBCH 12-13 with Mero 1 l/ha, visual scoring 14 days after application, 0%=no damage, 100%=all plants dead
[6] = Brassica napus, 336 h, 35 g a.i./ha, spray at BBCH 12-13 with Mero 1 l/ha, visual scoring 14 days after application, 0%=no damage, 100%=all plants dead
[7] = 30 g a.i./ha, spray at BBCH 12-13 with Mero 1 l/ha, visual scoring 14 days after application, 0%=no damage, 100%=all plants dead
[8] = Brassica napus, 336 h, 7 g a.i./ha, spray at BBCH 12-13 with Mero 1 l/ha, visual scoring 14 days after application, 0%=no damage, 100%=all plants dead
[9] = 15 g a.i./ha, spray at BBCH 12-13 with Mero 1 l/ha, visual scoring 14 days after application, 0%=no damage, 100%=all plants dead
[10] = Brassica napus, 336 h, 30 g a.i./ha, spray at BBCH 12-13 with Mero 1 l/ha, visual scoring 14 days after application, 0%=no damage, 100%=all plants dead

SMILES: COc1cc(OC)nc(NC(=O)[N-]S(=O)(=O)c2ncccc2C2=NOCCO2)n1.[Na+] [Compound of formula (I)]
- growth of plants regenerated from clone FM202 in presence of the ALS inhibitor [1]: able to grow

SMILES: COc1nc(C)nc(NC(=O)NS(=O)(=O)c2ccccc2Cl)n1 [Chlorsulfuron]
- Herbicide injury on B. napus FM 202 ([2]; 9 g a.i./ha, spray at BBCH 12-13 with Mero 1 l/ha, visual scoring 14 days after application, 0%=no damage, 100%=all plants dead): 0%

SMILES: COc1nn(C(=O)NS(=O)(=O)c2c(C(=O)O)csc2C)c(=O)n1C [Thiencarbazone]
- Herbicide injury on B. napus SR002201 [3, 5]: 90%
- Herbicide injury on B. napus FM 202 [2, 5]: 0%

SMILES: COc1nc(C)nc(=NC(=O)NS(=O)(=O)c2ccccc2C(=O)O)[nH]1 [Metsulfuron]
- pest or weed control at 8 g/ha ([3]; Brassica napus, 336 h, read-out: Herbicide injury on B. napus SR002201): 93%
- pest or weed control at 8 g/ha ([2]; Brassica napus, 336 h, read-out: Herbicide injury on B. napus FM 202): 0%

SMILES: CCOc1ccccc1OS(=O)(=O)NC(=O)Nc1nc(OC)cc(OC)n1 [Ethoxysulfuron]
- Herbicide injury on B. napus FM 202 ([2]; 60 g a.i./ha, spray at BBCH 12-13 with Mero 1 l/ha, visual scoring 14 days after application, 0%=no damage, 100%=all plants dead): 0%

SMILES: COc1cc(OC)nc(NC(=O)NS(=O)(=O)c2cc(NC=O)ccc2C(=O)N(C)C)n1 [Foramsulfuron]
- times less sensitive to the ALS inhibitor herbicide compared to the wild type enzyme [4]: at least 1000 times
- pest or weed control at 35 g/ha [3, 6]: 75%
- pest or weed control at 35 g/ha [2, 6]: 0%

SMILES: COc1nc(C)nc(N(C)C(=O)NS(=O)(=O)c2ccccc2C(=O)O)n1 [Tribenuron]
- Herbicide injury on B. napus SR002201 [3, 7]: 95%
- Herbicide injury on B. napus FM 202 [2, 7]: 3%

SMILES: COc1nc(C)nc(NC(=O)NS(=O)(=O)c2cc(I)ccc2C(=O)O)n1 [Iodosulfuron]
- pest or weed control at 7 g/ha [3, 8]: 95%
- pest or weed control at 7 g/ha [2, 8]: 0%

SMILES: COc1cc(OC)nc(NC(=O)NS(=O)(=O)c2cc(CNS(C)(=O)=O)ccc2C(=O)O)n1 [Mesosulfuron]
- Herbicide injury on B. napus SR002201 [3, 9]: 90%
- Herbicide injury on B. napus FM 202 [2, 9]: 0%

SMILES: COCc1cnc(C2=NC(C)(C(C)C)C(=O)N2)c(C(=O)O)c1 (stereo not drawn) [Imazamox]
- Herbicide injury on B. napus FM 202 ([2]; 40 g a.i./ha, spray at BBCH 12-13 with Mero 1 l/ha, visual scoring 14 days after application, 0%=no damage, 100%=all plants dead): 0%

SMILES: Cc1cccc(C(=O)O)c1S(=O)(=O)NC(=O)Nc1nc(OCC(F)(F)F)nc(N(C)C)n1 [Triflusulfuron]
- Herbicide injury on B. napus SR002201 [3, 5]: 65%
- Herbicide injury on B. napus FM 202 [2, 5]: 0%

SMILES: COc1cc(OC)nc(NC(=O)NS(=O)(=O)N(C)S(C)(=O)=O)n1 [Amidosulfuron]
- pest or weed control at 30 g/ha [3, 10]: 93%
- pest or weed control at 30 g/ha [2, 10]: 0%
